Measurements: patent US20070117858A1, “SUBSTITUTED 5-HETEROARYL-1-PHENYL-PYRAZOLE CANNABINOID MODULATORS” (priority 2005, published 2007)

Experiments:
human CB2 receptor = target: T1, human CB2 receptor (Homo sapiens, UniProt P34972); test: Cannabinoid CB2 receptor binding assay ([3H]-CP-55,940 displacement, SK-N-MC cell membranes); details: 1.5 h; test concentration of 0.2 μM; radioligand CP-55,940 0.2 nM; read-out: Cannabinoid CB2 Receptor Binding, percent inhibition
T1 construct: expressed in transfected cells; host or cells: SK-N-MC cells, stably transfected with pcDNA3 CB-2 (human); semi-purified membrane pellet
T1 sequence (P34972 whole entry): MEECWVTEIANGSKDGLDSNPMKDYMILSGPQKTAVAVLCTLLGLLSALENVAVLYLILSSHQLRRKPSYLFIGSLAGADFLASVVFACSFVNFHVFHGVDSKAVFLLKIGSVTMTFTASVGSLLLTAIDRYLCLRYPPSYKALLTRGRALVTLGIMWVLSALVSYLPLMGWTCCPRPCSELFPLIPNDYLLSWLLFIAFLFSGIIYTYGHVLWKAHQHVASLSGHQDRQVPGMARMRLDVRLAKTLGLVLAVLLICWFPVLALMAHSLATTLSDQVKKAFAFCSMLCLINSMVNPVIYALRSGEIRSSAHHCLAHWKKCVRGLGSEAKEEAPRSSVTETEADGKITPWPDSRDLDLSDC
Experimental: (§1) Binding Assay for CB1 or CB2 Agonists or Inverse Agonists
(§2) The human CB1 and CB2 receptors were stably expressed in SK-N-MC cells transfected with pcDNA3 CB-1 (human) or pcDNA3 CB-2 (human). The cells were grown in T-180 cell culture flasks under standard cell culture conditions at 37° C. in a 5% CO2 atmosphere. The cells were harvested by trysinization and homogenized in a homogenization buffer (10 mM Tris, 0.2 mM MgCl2, 5 mM KCl, with protease inhibitors aprotinin, leupeptin, pepstatin A and bacitracin) and centrifuged (2000 g). The supernatant was then centrifuged in 2M sucrose (31,300 g) to produce a semi-purified membrane pellet. The pellet was resuspended in homogenization and stored at −80° C.
(§3) On the day of the assay, the pellet was thawed on ice and diluted in assay buffer (50 mM Tris-HCl, 5 mM MgCl2, 2.5 mM EDTA, 0.5 mg/mL fatty acid free bovine serum albumin, pH 7.5). The diluted membrane pellet was added with buffer, either a test compound or vehicle standard and the radioligand […] (0.2 nM) to the wells of a 96-well polypropylene plate. Non-specific binding was measured in wells containing W1N 55,212 (10 uM). The plate was covered and incubated for 90 minutes at 30° C. The contents were then aspirated onto a Packard Unifilter GF/C filter bottom plate prewet with 0.5% polyethyleneimine. The wells of the polypropylene plate were rinsed and aspirated seven times with a 0.9% saline-0.5% Tween 20 solution. The Unifilter plate was dried, scintillation cocktail was added to each well and the counts representing binding were quantitated in a TopCount scintillation counter.
(§4) For compounds tested, an IC50 binding value was obtained from percent inhibition studies in which various test concentrations were used. The binding value was calculated by linear regression.
(§5) For compounds without an IC50 binding value, the percent inhibition (%) was obtained at a test concentration of 0.2 μM.

human CB1 receptor = target: T2, human CB1 receptor (Homo sapiens, UniProt P21554); test: Cannabinoid CB1 receptor binding assay ([3H]-CP-55,940 displacement, SK-N-MC cell membranes); details: for inhibition at 0.2 µM: 1.5 h, read-out: Cannabinoid CB1 Receptor Binding, percent inhibition
T2 construct: expressed in transfected cells; host or cells: SK-N-MC cells, stably transfected with pcDNA3 CB-1 (human); semi-purified membrane pellet
T2 sequence (P21554 whole entry): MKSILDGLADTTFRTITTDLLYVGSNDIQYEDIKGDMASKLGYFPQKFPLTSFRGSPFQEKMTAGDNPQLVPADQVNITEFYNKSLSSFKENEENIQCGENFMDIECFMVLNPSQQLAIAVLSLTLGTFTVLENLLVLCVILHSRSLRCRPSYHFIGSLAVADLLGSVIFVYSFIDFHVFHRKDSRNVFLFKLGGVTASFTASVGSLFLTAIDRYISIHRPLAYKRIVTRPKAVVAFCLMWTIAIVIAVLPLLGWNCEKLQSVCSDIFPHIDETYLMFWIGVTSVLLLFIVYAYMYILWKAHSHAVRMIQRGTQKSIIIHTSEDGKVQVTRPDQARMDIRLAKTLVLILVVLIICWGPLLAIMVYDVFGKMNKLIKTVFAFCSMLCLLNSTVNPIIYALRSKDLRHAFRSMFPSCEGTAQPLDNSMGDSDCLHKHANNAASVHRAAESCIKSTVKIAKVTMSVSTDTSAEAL
Experimental: as §1, §2, §3, §4, §5

Compound | inhibition at 0.2 µM (human CB2 receptor) [%] | inhibition at 0.2 µM (human CB1 receptor) [%] | IC50 (human CB1 receptor) [nM]
CCc1c(C(=O)N2CCC(O)CC2)nn(-c2ccc(Cl)cc2Cl)c1-c1ccc(Br)s1 [Cpd 50, [5-(5-bromo-thiophen-2-yl)-1-(2,4-dichloro-phenyl)-4-ethyl-1H-pyrazol-3-yl]-(4-hydroxy-piperidin-1-yl)-methanone] | 17 | 28 | –
Cc1c(C(=O)NN2CCCCC2)nn(-c2ccc(Cl)cc2Cl)c1-c1ccc(Br)s1 [Cpd 22, 5-(5-bromo-thiophen-2-yl)-1-(2,4-dichloro-phenyl)-4-methyl-1H-pyrazole-3-carboxylic acid piperidin-1-ylamide] | 42 | – | 37
Cc1c(C(=O)N[C@@H](C)c2ccccc2)nn(-c2ccc(Cl)cc2Cl)c1-c1cccs1 [Cpd 7, 1-(2,4-dichloro-phenyl)-4-methyl-5-thiophen-2-yl-1H-pyrazole-3-carboxylic acid [(1S)-1-phenyl-ethyl]-amide] | 0 | 28 | –
Cc1c(C(=O)N[C@@H](C)c2ccccn2)nn(-c2ccc(Cl)cc2Cl)c1-c1ccc(F)s1 [Cpd 34, 1-(2,4-dichloro-phenyl)-5-(5-fluoro-thiophen-2-yl)-4-methyl-1H-pyrazole-3-carboxylic acid [(1S)-1-pyridin-2-yl-ethyl]-amide] | 34 | 61 | –
Cc1c(C(=O)NN2CCCCC2=O)nn(-c2ccc(Cl)cc2Cl)c1-c1ccc(Cl)s1 [Cpd 30, 5-(5-chloro-thiophen-2-yl)-1-(2,4-dichloro-phenyl)-4-methyl-1H-pyrazole-3-carboxylic acid (2-oxo-piperidin-1-yl)-amide] | 15 | 17 | –
Cc1ccc(-c2c(C)c(C(=O)N[C@H](C)c3ccccc3)nn2-c2ccc(Cl)cc2Cl)o1 [Cpd 55, 1-(2,4-dichloro-phenyl)-4-methyl-5-(5-methyl-furan-2-yl)-1H-pyrazole-3-carboxylic acid [(1R)-1-phenyl-ethyl]-amide] | 30 | 58 | –
CCc1c(C(=O)NN2CCC(O)CC2)nn(-c2ccc(Cl)cc2Cl)c1-c1ccc(Br)s1 [Cpd 51, 5-(5-bromo-thiophen-2-yl)-1-(2,4-dichloro-phenyl)-4-ethyl-1H-pyrazole-3-carboxylic acid (4-hydroxy-piperidin-1-yl)-amide] | 13 | 63 | –
Cc1c(C(=O)N[C@H](C)c2ccccc2)nn(-c2ccc(Cl)cc2Cl)c1-c1ccc(Cl)s1 [Cpd 14, 5-(5-chloro-thiophen-2-yl)-1-(2,4-dichloro-phenyl)-4-methyl-1H-pyrazole-3-carboxylic acid [(1R)-1-phenyl-ethyl]-amide] | 40 | – | 27
Cc1c(C(=O)N[C@@H](C)c2ccccc2)nn(-c2ccc(Cl)cc2Cl)c1-c1ccc(F)s1 [Cpd 31, 1-(2,4-dichloro-phenyl)-5-(5-fluoro-thiophen-2-yl)-4-methyl-1H-pyrazole-3-carboxylic acid [(1S)-1-phenyl-ethyl]-amide] | 39 | 64 | –
CCc1c(C(=O)N[C@H](C)c2ccccc2)nn(-c2ccc(Cl)cc2Cl)c1-c1ccc(Br)s1 [Cpd 40, 5-(5-bromo-thiophen-2-yl)-1-(2,4-dichloro-phenyl)-4-ethyl-1H-pyrazole-3-carboxylic acid [(1R)-1-phenyl-ethyl]-amide] | 52 | 78 | –
